The numbers were not newly measured in patent US20200037638A1, “FORMULATIONS” (Molecular Infusions, LLC., priority 2017, published 2020), which cites them from elsewhere.

Where only a bound is given, the exact number is not on record here.

On to `CCCCCc1cc(O)c2c(c1)OC(C)(C)[C@@H]1CCC(C)=C[C@@H]21` [dronabinol, Δ9-tetrahydrocannabinol], for which, where the note is “after administration”, the “Duration of appetite stimulant effect” value was ≥ 24 h. Besides, where the note is “after oral administration”, the “Duration of action for psychoactive effects” value was 4 to 6 h, the Onset of action was 0.5 to 1 h and the “Peak effect (time)” value is 2 to 4 h. The Absorbed (after single oral doses) is given as 90 to 95%. Also, for the setting “oral, first pass hepatic metabolism and high lipid solubility”, the “Administered dose reaching the systemic circulation” value is recorded as 10 to 20%.
